Test results from ChEMBL document CHEMBL1201862, “PubChem BioAssay data set” (2004).
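All cell lines were grown in 96-well plates and treated with compound for 48 hours. The concentration for 50% growth inhibition is given as GI50.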 Activity calls are given as the source filed them. Rule as the data show it: active = GI50 up to about 1.1 µM and inactive = higher.

Experiments:
Assay in all cases: NCI-60 cell line screen, 48 h
NCI-H23 = test system: NCI-H23
UACC-62 = test system: UACC-62
RPMI-8226 = test system: RPMI-8226
DU-145 = test system: DU-145
NCI-H460 = test system: NCI-H460
IGROV-1 = test system: IGROV-1
CAKI-1 = test system: CAKI-1
Hs-578T = test system: Hs-578T
786-0 = test system: 786-0
A549 = test system: A549
LOX IMVI = test system: LOX IMVI
MDA-MB-231 = test system: MDA-MB-231
SK-MEL-2 = test system: SK-MEL-2
MOLT-4 = test system: MOLT-4
MCF7 = test system: MCF7
EKVX = test system: EKVX
TK-10 = test system: TK-10
K562 = test system: K562
SK-MEL-5 = test system: SK-MEL-5
SF-539 = test system: SF-539
SF-268 = test system: SF-268
OVCAR-5 = test system: OVCAR-5
M14 = test system: M14
MDA-MB-435 = test system: MDA-MB-435
HCT-116 = test system: HCT-116
SK-MEL-28 = test system: SK-MEL-28
HL-60 = test system: HL-60
U-251 = test system: U-251
SR = test system: SR
SK-OV-3 = test system: SK-OV-3
T47D = test system: T47D
HOP-92 = test system: HOP-92
HT-29 = test system: HT-29
OVCAR-8 = test system: OVCAR-8
HCT-15 = test system: HCT-15
SF-295 = test system: SF-295
ACHN = test system: ACHN
SN12C = test system: SN12C
MDA-N = test system: MDA-N
KM12 = test system: KM12
Malme-3M = test system: Malme-3M
BT-549 = test system: BT-549
A498 = test system: A498
OVCAR-4 = test system: OVCAR-4
COLO 205 = test system: COLO 205
SNB-19 = test system: SNB-19
UO-31 = test system: UO-31
NCI/ADR-RES = test system: NCI/ADR-RES
PC-3 = test system: PC-3
NCI-H522 = test system: NCI-H522
RXF 393 = test system: RXF 393
OVCAR-3 = test system: OVCAR-3
NCI-H226 = test system: NCI-H226
SW-620 = test system: SW-620
UACC-257 = test system: UACC-257
HOP-62 = test system: HOP-62
SNB-75 = test system: SNB-75
CCRF-CEM = test system: CCRF-CEM

## NCCNCC(O)CO (centres undefined)
NCI-H23
  GI50: > 100 µM (inactive)
UACC-62
  GI50: > 100 µM (inactive)
RPMI-8226
  GI50: > 100 µM (inactive)
DU-145
  GI50: > 100 µM (inactive)
NCI-H460
  GI50: > 100 µM (inactive)
IGROV-1
  GI50: > 100 µM (inactive)
CAKI-1
  GI50: > 100 µM (inactive)
Hs-578T
  GI50: > 100 µM (inactive)
786-0
  GI50: > 100 µM (inactive)
A549
  GI50: > 100 µM (inactive)
LOX IMVI
  GI50: > 100 µM (inactive)
MDA-MB-231
  GI50: > 100 µM (inactive)
SK-MEL-2
  GI50: > 100 µM (inactive)
MOLT-4
  GI50: > 100 µM (inactive)
MCF7
  GI50: > 100 µM (inactive)
EKVX
  GI50: > 100 µM (inactive)
TK-10
  GI50: > 100 µM (inactive)
K562
  GI50: > 100 µM (inactive)
SK-MEL-5
  GI50: > 100 µM (inactive)
SF-539
  GI50: > 100 µM (inactive)
SF-268
  GI50: > 100 µM (inactive)
OVCAR-5
  GI50: > 100 µM (inactive)
M14
  GI50: > 100 µM (inactive)
MDA-MB-435
  GI50: > 100 µM (inactive)
HCT-116
  GI50: > 100 µM (inactive)
SK-MEL-28
  GI50: > 100 µM (inactive)
HL-60
  GI50: > 100 µM (inactive)
U-251
  GI50: > 100 µM (inactive)
SR
  GI50: > 100 µM (inactive)
SK-OV-3
  GI50: > 100 µM (inactive)
T47D
  GI50: > 100 µM (inactive)
HOP-92
  GI50: > 100 µM (inactive)
HT-29
  GI50: > 100 µM (inactive)
OVCAR-8
  GI50: > 100 µM (inactive)
HCT-15
  GI50: > 100 µM
SF-295
  GI50: > 100 µM (inactive)
ACHN
  GI50: > 100 µM (inactive)
SN12C
  GI50: > 100 µM (inactive)
MDA-N
  GI50: > 100 µM (inactive)
KM12
  GI50: > 100 µM (inactive)
Malme-3M
  GI50: > 100 µM (inactive)
BT-549
  GI50: > 100 µM (inactive)
A498
  GI50: > 100 µM (inactive)
OVCAR-4
  GI50: > 100 µM (inactive)
COLO 205
  GI50: > 100 µM (inactive)
SNB-19
  GI50: > 100 µM (inactive)
UO-31
  GI50: > 100 µM (inactive)
NCI/ADR-RES
  GI50: > 100 µM (inactive)
PC-3
  GI50: > 100 µM (inactive)
NCI-H522
  GI50: > 100 µM (inactive)
RXF 393
  GI50: > 100 µM (inactive)
OVCAR-3
  GI50: > 100 µM (inactive)
NCI-H226
  GI50: > 100 µM (inactive)
SW-620
  GI50: > 100 µM (inactive)
UACC-257
  GI50: > 100 µM (inactive)
HOP-62
  GI50: > 100 µM (inactive)
SNB-75
  GI50: > 100 µM (inactive)

## Br/C(=N\N=c1/nn[nH][nH]1)c1ccncc1
NCI-H23
  GI50: > 100 µM (inactive)
UACC-62
  GI50: > 100 µM (inactive)
CCRF-CEM
  GI50: > 100 µM (inactive)
RPMI-8226
  GI50: > 100 µM (inactive)
DU-145
  GI50: > 100 µM (inactive)
NCI-H460
  GI50: > 100 µM (inactive)
IGROV-1
  GI50: > 100 µM (inactive)
CAKI-1
  GI50: > 100 µM (inactive)
Hs-578T
  GI50: > 100 µM (inactive)
786-0
  GI50: > 100 µM (inactive)
A549
  GI50: > 100 µM (inactive)
LOX IMVI
  GI50: > 100 µM (inactive)
MDA-MB-231
  GI50: > 100 µM (inactive)
SK-MEL-2
  GI50: > 100 µM (inactive)
MOLT-4
  GI50: > 100 µM (inactive)
MCF7
  GI50: > 100 µM (inactive)
EKVX
  GI50: > 100 µM (inactive)
TK-10
  GI50: > 100 µM (inactive)
K562
  GI50: > 100 µM (inactive)
SK-MEL-5
  GI50: > 100 µM (inactive)
SF-539
  GI50: > 100 µM (inactive)
SF-268
  GI50: > 100 µM (inactive)
OVCAR-5
  GI50: > 100 µM (inactive)
M14
  GI50: > 100 µM (inactive)
MDA-MB-435
  GI50: > 100 µM (inactive)
HCT-116
  GI50: > 100 µM (inactive)
SK-MEL-28
  GI50: > 100 µM (inactive)
HL-60
  GI50: > 100 µM (inactive)
U-251
  GI50: > 100 µM (inactive)
SR
  GI50: > 100 µM (inactive)
SK-OV-3
  GI50: > 100 µM (inactive)
T47D
  GI50: > 100 µM (inactive)
HOP-92
  GI50: > 100 µM (inactive)
HT-29
  GI50: > 100 µM (inactive)
OVCAR-8
  GI50: > 100 µM (inactive)
HCT-15
  GI50: > 100 µM
SF-295
  GI50: > 100 µM (inactive)
ACHN
  GI50: > 100 µM (inactive)
SN12C
  GI50: > 100 µM (inactive)
MDA-N
  GI50: > 100 µM (inactive)
KM12
  GI50: > 100 µM (inactive)
Malme-3M
  GI50: > 100 µM (inactive)
BT-549
  GI50: > 100 µM (inactive)
A498
  GI50: > 100 µM (inactive)
OVCAR-4
  GI50: > 100 µM (inactive)
COLO 205
  GI50: > 100 µM (inactive)
SNB-19
  GI50: > 100 µM (inactive)
NCI/ADR-RES
  GI50: > 100 µM (inactive)
PC-3
  GI50: > 100 µM (inactive)
NCI-H522
  GI50: > 100 µM (inactive)
RXF 393
  GI50: > 100 µM (inactive)
OVCAR-3
  GI50: > 100 µM (inactive)
NCI-H226
  GI50: > 100 µM (inactive)
SW-620
  GI50: > 100 µM (inactive)
UACC-257
  GI50: > 100 µM (inactive)
HOP-62
  GI50: > 100 µM (inactive)
SNB-75
  GI50: > 100 µM (inactive)
